SMILES strings stand for the structures. Where a name gives a salt, the structure may show the parent alone. Read-outs that look alike come from different tables or passages of the source.

A word on the Ki: it is the equilibrium dissociation constant of an inhibitor or competing ligand from its target. A word on the IC50: it is the concentration at which inhibition is half-maximal.

The target in assay [1] is isolated recombinant JAK2 kinase domain (Homo sapiens (Human), UniProt O60674). The settings on record: read-out: JAK2 Ki.
Sequence of isolated recombinant JAK2 kinase domain (O60674 849-1124): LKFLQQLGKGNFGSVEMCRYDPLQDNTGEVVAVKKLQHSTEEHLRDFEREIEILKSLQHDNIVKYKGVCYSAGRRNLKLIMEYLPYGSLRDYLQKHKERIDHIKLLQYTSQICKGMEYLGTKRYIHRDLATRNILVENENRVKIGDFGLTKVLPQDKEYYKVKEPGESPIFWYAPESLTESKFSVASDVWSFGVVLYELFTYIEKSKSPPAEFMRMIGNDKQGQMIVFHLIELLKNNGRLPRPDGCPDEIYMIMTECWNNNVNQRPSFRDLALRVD
For assay [2], the system named is JAK1-dependent STAT6 phosphorylation downstream of IL-13 stimulation in TF-1 human erythroleukemia cells. Description: cells. The note with it: TF-1, read-out: IL-13-pSTAT6 IC50.
Where [3] appears, read: isolated recombinant JAK2 kinase domain, 25 μM ATP.

`COC1(c2ccccc2)CCN(c2cccn3nc(Nc4ccc(C(=O)N(C)C5CCN(C)CC5)cc4)nc23)CC1` [Example 1-5, 4-[[8-(4-methoxy-4-phenyl-1-piperidyl)-[1,2,4]triazolo[1,5-a]pyridin-2-yl]amino]-N-methyl-N-(1-methyl-4-piperidyl)benzamide; hydrochloride]: in assay [1] (setting [3]), the Ki amounted to 5.15 nM. In assay [2], the IC50 came out at 767 nM.

In the case of `COC1CCN(c2cccn3nc(Nc4ccc(C(=O)N(C)C5CCN(C)CC5)cc4)nc23)CC1` [Example 1-8, 4-[[8-(4-methoxy-1-piperidyl)-[1,2,4]triazolo[1,5-a]pyridin-2-yl]amino]-N-methyl-N-(1-methyl-4-piperidyl)benzamide], the Ki in assay [1] (setting [3]) amounted to 23.1 nM. In assay [2], the IC50 amounted to 756 nM.

Regarding `CN1CCC(N(C)C(=O)c2ccc(Nc3nc4c(N5CCC(O)(c6ccc(C#N)cc6)CC5)cccn4n3)cc2)CC1` [Example 1-21, 4-[[8-[4-(4-cyanophenyl)-4-hydroxy-1-piperidyl]-[1,2,4]triazolo[1,5-a]pyridin-2-yl]amino]-N-methyl-N-(1-methyl-4-piperidyl)benzamide], the Ki in assay [1] (setting [3]) stood at 6.49 nM. Moreover, the IC50 in assay [2] was found to be 333 nM.

As for `CN1CCC(N(C)C(=O)c2ccc(Nc3nc4c(N5CCC(OCC#N)CC5)cccn4n3)cc2)CC1` [Example 1-23, 4-[[8-[4-(cyanomethoxy)-1-piperidyl]-[1,2,4]triazolo[1,5-a]pyridin-2-yl]amino]-N-methyl-N-(1-methyl-4-piperidyl)benzamide], the Ki in assay [1] (setting [3]) stood at 2.5 nM. Moreover, the IC50 in assay [2] was 73.7 nM.

On to `CN1CCC(N(C)C(=O)c2ccc(Nc3nc4c(N5CCC(CC(N)=O)(c6ccccc6)CC5)cccn4n3)cc2)CC1` [Example 1-30, 4-[[8-[4-(2-amino-2-oxo-ethyl)-4-phenyl-1-piperidyl]-[1,2,4]triazolo[1,5-a]pyridin-2-yl]amino]-N-methyl-N-(1-methyl-4-piperidyl)benzamide], for which, in assay [1] (setting [3]), the Ki was determined as 0.27 nM. The IC50 in assay [2] was 252 nM.

With `CN1CCC(N(C)C(=O)c2ccc(Nc3nc4c(N5CCN(C(=O)N6CC(C)(C)C6)CC5)cccn4n3)cc2)CC1` [Example 1-34, 4-[[8-[4-(3,3-dimethylazetidine-1-carbonyl)piperazin-1-yl]-[1,2,4]triazolo[1,5-a]pyridin-2-yl]amino]-N-methyl-N-(1-methyl-4-piperidyl)benzamide], the Ki in assay [1] (setting [3]) was found to be 8.61 nM. Moreover, the IC50 in assay [2] is 916 nM.

For `CCc1ccc(C2(O)CCN(c3cccn4nc(Nc5ccc(C(=O)N(C)C6CCN(C)CC6)cc5)nc34)CC2)cc1` [Example 1-36, 4-[[8-[4-(4-ethylphenyl)-4-hydroxy-1-piperidyl]-[1,2,4]triazolo[1,5-a]pyridin-2-yl]amino]-N-methyl-N-(1-methyl-4-piperidyl)benzamide], the Ki in assay [1] (setting [3]) was 4.32 nM. Besides, the IC50 in assay [2] was determined as 142 nM.

For the compound `O=C(c1ccc(Nc2nc3c(N4CCC(O)(c5ccc(Cl)cc5)CC4)cccn3n2)cc1)N1CCN(c2ccccn2)CC1` [Example 1-112, [4-[[8-[4-(4-chlorophenyl)-4-hydroxy-1-piperidyl]-[1,2,4]triazolo[1,5-a]pyridin-2-yl]amino]phenyl]-[4-(2-pyridyl)piperazin-1-yl]methanone], the Ki in assay [1] (setting [3]) was found to be 3.8 nM.

As for `CN1CCC(N(C)C(=O)c2ccc(Nc3nc4c(Oc5ccccc5)cccn4n3)cc2)CC1` [Example 1-248, N-Methyl-N-(1-methyl-piperidin-4-yl)-4-(8-phenoxy-[1,2,4]triazolo[1,5-a]pyridine-2-ylamino)-benzamide], in assay [1], the Ki was found to be 22.1 nM.

For the compound `CN1CCC(N(C)C(=O)c2ccc(Nc3nc4c(N5CCC(CC#N)(C6CCCC6)CC5)cccn4n3)cc2)CC1` [Example 1-257, 4-([8-[4-(cyanomethyl)-4-cyclopentylpiperidin-1-yl]-[1,2,4]triazolo[1,5-a]pyridin-2-yl]amino)-N-methyl-N-(1-methylpiperidin-4-yl)benzamide], the Ki in assay [1] (setting [3]) came to 2.34 nM.

In the case of `CN1CCC(N(C)C(=O)c2ccc(Nc3nc4c(N5CCC(C)(C(=O)NCc6ccccc6)CC5)cccn4n3)cc2)CC1` [Example 1-259, N-benzyl-4-methyl-1-[2-[4-[methyl-(1-methyl-4-piperidyl)carbamoyl]anilino]-[1,2,4]triazolo[1,5-a]pyridin-8-yl]piperidine-4-carboxamide], the Ki in assay [1] (setting [3]) was found to be 10.7 nM.

As to `CC(=O)NC1(C)CCN(c2cccn3nc(Nc4ccc(C(=O)N(C)C5CCN(C)CC5)cc4)nc23)CC1` [Example 1-260, 4-[[8-(4-acetamido-4-methylpiperidin-1-yl)-[1,2,4]-triazolo[1,5-a]pyridin-2-yl]amino]-N-methyl-N-(1-methylpiperidin-4-yl)benzamide], the Ki in assay [1] (setting [3]) came out at 16.3 nM.

For the compound `CN1CCC(N(C)C(=O)c2ccc(Nc3nc4c(N5CCC(C)(N(C)S(=O)(=O)c6ccccc6)CC5)cccn4n3)cc2)CC1` [Example 1-261], in assay [1] (setting [3]), the Ki is 3.56 nM.

As to `CN1CCC(N(C)C(=O)c2ccc(Nc3nc4c(Oc5ccc6oc(=O)n(Cc7ccccc7)c6c5)cccn4n3)cc2)CC1` [Example 1-264, 4-([8-[(3-benzyl-2-oxo-2,3-dihydro-1,3-benzoxazol-5-yl)oxy]-[1,2,4]triazolo[1,5-a]pyridin-2-yl]amino)-N-methyl-N-(1-methylpiperidin-4-yl)benzamide], in assay [1], the Ki stood at 121 nM.

Consider `CN1CCC(N(C)C(=O)c2ccc(Nc3nc4c(N5CCC(CO)(CNCC(F)(F)F)CC5)cccn4n3)cc2)CC1` [Example 1-266, 4-([8-[4-(hydroxymethyl)-4-[[(2,2,2-trifluoroethyl)amino]methyl]piperidin-1-yl]-[1,2,4]triazolo[1,5-a]pyridin-2-yl]amino)-N-methyl-N-(1-methylpiperidin-4-yl)benzamide], for which the Ki in assay [1] (setting [3]) is 2.54 nM.

For the compound `CN1CCC(N(C)C(=O)c2ccc(Nc3nc4c(N5CCC(C(=O)O)(c6ccc(Cl)cc6)CC5)cccn4n3)cc2)CC1` [Example 1-269, 4-(4-chlorophenyl)-1-[2-([4-[methyl(1-methylpiperidin-4-yl)carbamoyl]phenyl]amino)-[1,2,4]-triazolo[1,5-a]pyridin-8-yl]piperidine-4-carboxylic acid], in assay [1] (setting [3]), the Ki was 13.2 nM.

As for `CN1CCC(N(C)C(=O)c2ccc(Nc3nc4c(N5CC6CC5CN6Cc5ccccc5)cccn4n3)cc2)CC1` (stereo not drawn) [Example 1-293, 4-[[8-(5-benzyl-2,5-diazabicyclo[2.2.1]heptan-2-yl)-[1,2,4]triazolo[1,5-a]pyridin-2-yl]amino]-N-methyl-N-(1-methyl-4-piperidyl)benzamide], in assay [1] (setting [3]), the Ki was found to be 110 nM.

Turning to `CN1CCC(N(C)C(=O)c2ccc(Nc3nc4c(N5CCC(C)(NC(=O)c6ccccc6)CC5)cccn4n3)cc2)CC1` [Example 1-302, 4-[[8-(4-benzamido-4-methyl-1-piperidyl)-[1,2,4]triazolo[1,5-a]pyridin-2-yl]amino]-N-methyl-N-(1-methyl-4-piperidyl)benzamide], the Ki in assay [1] (setting [3]) came to 6.37 nM.

Take `CN1CCC(N(C)C(=O)c2ccc(Nc3nc4c(N5CCC(C)(NS(=O)(=O)c6ccccc6)CC5)cccn4n3)cc2)CC1` [Example 1-303, 4-[[8-[4-(benzenesulfonamido)-4-methyl-1-piperidyl]-[1,2,4]triazolo[1,5-a]pyridin-2-yl]amino]-N-methyl-N-(1-methyl-4-piperidyl)benzamide]: the Ki in assay [1] (setting [3]) stood at 4.98 nM.

Take `NCC1(c2ccccc2)CCN(c2cccn3nc(NC(=O)C4CC4)nc23)CC1` [Example 3-1, N-[8-[4-(aminomethyl)-4-phenyl-1-piperidyl]-[1,2,4]triazolo[1,5-a]pyridin-2-yl]cyclopropane carboxamide; hydrochloride]: the Ki in assay [1] (setting [3]) stood at 145 nM.

These data come from patent publication US9873709B2 (priority 2013, dated 2018).
